In US3950379A, “2-Cyano-diphenyl ethers” (Rohm and Haas Company, priority 1974, dated 1976):

Columns and labels:
Format in all cases: in vivo
Dicots [1] = assay: Herbicidal activity, postemergence, dicot weeds in flats (% control); conditions: post-emergence, 336 h, dicots (10 species, average), about 2 weeks after application, percent of plants killed; for activity at 4483.4 g/ha: 4 lb./A.; for activity at 2241.7 g/ha: 2 lb./A.
Monocots [2] = assay: Herbicidal activity, preemergence, monocot weeds in flats (% control); conditions: pre-emergence, 336 h, about 2 weeks after application, percent of plants killed; for activity at 11208.5 g/ha: monocots (4 species, average), 10 lb./A.; for activity at 4483.4 g/ha / activity at 2241.7 g/ha: monocots (10 species, average); for activity at 4483.4 g/ha: 4 lb./A.; for activity at 2241.7 g/ha: 2 lb./A.
Experimental: (§1) Using the procedure described below, diphenyl ethers were evaluated for control of the following weeds: At 10 pounds per acre: […]
(§2) barnyardgrass (Echinochloa crusgalli) crabgrass (Digitaria spp.) nutsedge (Cyperus esculentus)
(§3) At 2 and 4 pounds per acre: […]
(§4) downy brome (Bromus tectorum) foxtail (Setaria faberii)
(§5) Johnsongrass (Sorghum halepense) […]
(§6) quackgrass (Agropyron repens) ryegrass (Lolium perenne) […]
(§7) yellow millet (Panicum miliaceum)
(§8) The following test procedure is employed. Seeds of selected crops and weeds are planted in soil in flats. For preemergence tests, the flats are treated with the test compound immediately after the planting. For post-emergence tests, the seeds are allowed to germinate, and after 2 weeks the flats are treated with the test compound. The compound to be evaluated is dissolved in acetone, diluted with water, and sprayed over the flats using a carrier volume equivalent to 50 gallons per acre at the rate of application (pounds per acre, lb/A.) specified in the tables. About 2 weeks after the application of the test compound, the state of growth of the plant is observed and the phytotoxic effect of the compound is evaluated. Table II gives the average percent control achieved by the test compounds in terms of the percent of the plants which are killed by the compounds.

Monocots [3] = assay: Herbicidal activity, postemergence, monocot weeds in flats (% control); conditions: post-emergence, 336 h, about 2 weeks after application, percent of plants killed; for activity at 11208.5 g/ha: monocots (4 species, average), 10 lb./A.; for activity at 4483.4 g/ha / activity at 2241.7 g/ha: monocots (10 species, average); for activity at 4483.4 g/ha: 4 lb./A.; for activity at 2241.7 g/ha: 2 lb./A.
Experimental: as §1, §2, §3, §4, §5, §6, §7, §8

Dicots [4] = assay: Herbicidal activity, preemergence, dicot weeds in flats (% control); conditions: pre-emergence, 336 h, dicots (4 species, average), 10 lb./A., about 2 weeks after application, percent of plants killed
Experimental: as §1
(§9) bindweed (Convolvulus arvensis) curly dock (Rumex crispus) velvetleaf (Abutilon theophrasti) wild mustard (Brassica haber)
as §3
(§10) cocklebur (Xanthium pensylvanicum) […]
(§11) lambsquarters (Chenopodium album) morningglory (Ipomoea purpurea) pigweed (Amaranthus retroflexus) smartweed (Polygonum pensylvanicum) […]
(§12) wild carrot (Daucus carota)
as §8

Dicots [5] = assay: as above; conditions: pre-emergence, 336 h, dicots (10 species, average), about 2 weeks after application, percent of plants killed; for activity at 4483.4 g/ha: 4 lb./A.; for activity at 2241.7 g/ha: 2 lb./A.
Dicots [6] = assay: Herbicidal activity, postemergence, dicot weeds in flats (% control); conditions: post-emergence, 336 h, dicots (4 species, average), 10 lb./A., about 2 weeks after application, percent of plants killed
Experimental: as §1, §9, §3, §10, §11, §12, §8

SMILES	activity at 4483.4 g/ha (Dicots [1]) [%]	activity at 11208.5 g/ha (Monocots [2]) [%]	activity at 4483.4 g/ha (Monocots [2]) [%]	activity at 11208.5 g/ha (Monocots [3]) [%]	activity at 4483.4 g/ha (Monocots [3]) [%]	activity at 11208.5 g/ha (Dicots [4]) [%]	activity at 4483.4 g/ha (Dicots [5]) [%]	activity at 11208.5 g/ha (Dicots [6]) [%]	activity at 2241.7 g/ha (Dicots [1]) [%]	activity at 2241.7 g/ha (Monocots [2]) [%]	activity at 2241.7 g/ha (Monocots [3]) [%]	activity at 2241.7 g/ha (Dicots [5]) [%]
N#Cc1cc(F)ccc1Oc1ccc([N+](=O)[O-])cc1 [Example 1, 2-cyano-4-fluoro-4'-nitrodiphenyl ether]	58	77	47	95	44	77	51	100	–	–	–	–
N#Cc1cc(Cl)ccc1Oc1ccc([N+](=O)[O-])cc1 [Example 2]	64	81	49	95	44	95	55	100	–	–	–	–
N#Cc1cc(C(F)(F)F)ccc1Oc1ccc(Cl)cc1 [Example 3, 2-cyano-α,α,α-trifluoro-p-tolyl-4-chlorophenylether]	38	10	59	17	9	10	40	75	50	65	27	61
N#Cc1cc(C(F)(F)F)ccc1Oc1ccc(Br)cc1 [Example 4, 2-cyano-α, α, α-trifluoro-p-tolyl-4-bromophenyl ether]	56	5	67	22	34	0	37	85	50	51	34	34
N#Cc1ccc(Oc2ccc(C(F)(F)F)cc2C#N)cc1 [Example 5]	41	70	44	25	11	77	50	65	59	42	48	47
N#Cc1cc(C(F)(F)F)ccc1Oc1ccc(C(F)(F)F)cc1 [Example 6, 2-cyano-α, α, α-trifluoro-p-tolyl-α,α,α-trifluoro-p-tolyl ether]	–	0	–	70	–	10	–	75	49	34	34	5
N#Cc1cc(C(F)(F)F)ccc1Oc1ccc(Cl)c(Cl)c1 [Example 7]	64	0	66	40	36	0	41	77	55	56	36	65
